Measurements from BindingDB's records for doi:10.3109/14756360902888184 (Dublin City University, 2010).
Residues, ends and D or L forms follow the SMILES beside them. *: point of attachment. Bz = O=C(c1ccccc1)*

target: T1, Secreted cathepsin L 1 (Fasciola hepatica, UniProt Q7JNQ9); assay: Cathepsin L Enzyme Assay
T1 sequence (Q7JNQ9 whole entry): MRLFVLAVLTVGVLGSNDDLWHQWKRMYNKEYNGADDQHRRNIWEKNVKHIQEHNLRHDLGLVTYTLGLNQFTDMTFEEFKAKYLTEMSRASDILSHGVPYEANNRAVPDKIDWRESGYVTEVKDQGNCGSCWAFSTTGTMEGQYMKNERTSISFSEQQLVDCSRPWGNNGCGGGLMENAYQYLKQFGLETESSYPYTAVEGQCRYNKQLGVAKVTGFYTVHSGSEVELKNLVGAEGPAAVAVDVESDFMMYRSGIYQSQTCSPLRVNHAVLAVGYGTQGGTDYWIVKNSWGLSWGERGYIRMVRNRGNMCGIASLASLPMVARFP
Protocol: The protease was activated by the addition of dithiothreitol, ethylenediaminetetraacetic acid (EDTA), and sodium acetate followed by incubation at 37°C for 2 h. Proteinase activity was measured fluorometrically using Z-Phe-Arg-NHMec as substrate. The substrate was stored as a 1 mM stock solution in dimethyl sulfoxide (DMSO). Assays were carried out using a final concentration of 10 μM substrate in 0.1 M sodium acetate containing 0.1 M dithiothreitol and […]. The enzyme and inhibitor were incubated together for 15 min at 37°C, at which stage the substrate was added. The mixture was incubated at 37°C for 30 min. The reaction was stopped by the addition of 150 μL of a 10% acetic acid solution. The amount of 7-amino-4-methylcoumarin (-NHMec) released was measured using a PerkinElmer fluorescence spectrophotometer with excitation set at 370 nm and emission at 440 nm.

SMILES | IC50 [µM]
CC(C)C[C@H](NC(=O)c1c(F)c(F)c(F)c(F)c1F)C(=O)NCC#N [N-2,3,4,5,6-pentafluorobenzoyl-L-leucine-glycine nitrile (33)] | 4.4
CC(C)C[C@H](NC(=O)c1cc(F)c(F)c(F)c1F)C(=O)NCC#N [N-2,3,4,5-tetrafluorobenzoyl-L-leucine-glycine nitrile (32)] | 3.4
CC(C)C[C@H](NC(=O)c1ccc(F)c(F)c1F)C(=O)NCC#N [N-2,3,4-trifluorobenzoyl-L-leucine-glycine nitrile (29)] | 4.1
CC(C)C[C@H](NC(=O)c1c(F)ccc(F)c1F)C(=O)NCC#N [N-2,3,6-trifluorobenzoyl-L-leucine-glycine nitrile (28)] | 6
CC(C)C[C@H](NC(=O)c1cc(F)c(F)cc1F)C(=O)NCC#N [N-2,4,5-trifluorobenzoyl-L-leucine-glycine nitrile] | 4.5
CC(C)C[C@H](NC(=O)c1ccc(F)cc1F)C(=O)NCC#N [N-2,4-difluorobenzoyl-L-leucine-glycine nitrile (23)] | 5.5
CC(C)C[C@H](NC(=O)c1cc(F)ccc1F)C(=O)NCC#N [N-2,5-difluorobenzoyl-L-leucine-glycine nitrile (24)] | 3.1
CC(C)C[C@H](NC(=O)c1c(F)cccc1F)C(=O)NCC#N [N-2,6-difluorobenzoyl-L-leucine-glycine nitrile (25)] | 3.7
C[C@H](NC(=O)c1ccccc1F)C(=O)NCC#N [N-2-fluorobenzoyl-L-alanine-glycine nitrile (15)] | 87.6
C[C@H](NC(=O)c1ccccc1F)C(=O)NCCC#N [N-2-fluorobenzoyl-L-alanine-β-alanine nitrile (19)] | > 100
CC(C)C[C@H](NC(=O)c1ccccc1C(F)(F)F)C(=O)NCC#N [N-2-trifluoromethylbenzoyl-L-leucine-glycine nitrile (34)] | 4.1
CC(C)C[C@H](NC(=O)c1cc(F)c(F)c(F)c1)C(=O)NCC#N [N-3,4,5-trifluorobenzoyl-L-leucine-glycine nitrile] | 3.4
CC(C)C[C@H](NC(=O)c1ccc(F)c(F)c1)C(=O)NCC#N [N-3,4-difluorobenzoyl-L-leucine-glycine nitrile (26)] | 3.1
CC(C)C[C@H](NC(=O)c1cc(F)cc(F)c1)C(=O)NCC#N [N-3,5-difluorobenzoyl-L-leucine-glycine nitrile (27)] | 3
CC(C)C[C@H](NC(=O)c1cccc(C(F)(F)F)c1)C(=O)NCC#N [N-3-trifluoromethylbenzoyl-L-leucine-glycine nitrile (35)] | 9.1
CC(C)C[C@H](NC(=O)c1ccc(C(F)(F)F)cc1)C(=O)NCC#N [N-4-trifluoromethylbenzoyl-L-leucine-glycine nitrile (36)] | 3.2
CC(C)C[C@H](NC(=O)c1ccccc1)C(=O)NCC(=O)O [N-benzoyl-L-leucine-glycine (37)] (Bz-Leu-Gly-OH) | 10
C[C@H](NC(=O)c1c(F)c(F)c(F)c(F)c1F)C(=O)NCC#N [N-pentafluorobenzoyl-L-alanine-glycine nitrile (16)] | 68.3
C[C@H](NC(=O)c1c(F)c(F)c(F)c(F)c1F)C(=O)NCCC#N [N-pentafluorobenzoyl-L-alanine-β-alanine nitrile (20)] | > 100
